Values of other authors as cited in paper PMC2233745 (The Journal of General Physiology, 2001).

System: high Km PDE
Conditions: high Km PDE in GH3 and GH4C1 cells; ref Gautvik et al. 1982; cited from earlier work

In the case of `Nc1ncnc2c1ncn2[C@@H]1O[C@@H]2COP(=O)(O)O[C@H]2[C@H]1O` [cAMP], the Km is given as 28.6 µM.
